Test results published in patent US5783568A, “Methods for treating cancer and other cell proliferative diseases” (Sugen, Inc., priority 1994, dated 1998).
Entries after “also recorded” stand apart in the source; their conditions may differ. Where two headings read alike, the source gives them in different places.

Columns and labels:
K-FGF = details: cited from earlier work
tumor cells = details: Wellstein et al, 1991; cited from earlier work
gastric mucosa = details: cited from earlier work
bFGF = details: cited from earlier work
EGF = details: cited from earlier work
heparin binding proteins = details: cited from earlier work
FGFR2 (bek) [1] = assay: Tyrosine phosphorylation of FGFR2 in mutant (HSPG-deficient) CHO-pgsD-677 cells; assay type: cell-based, human
Experimental: (§1) Cells were lysed and the receptor was immunoprecipitated with anti-FGFR2 antibodies. Samples were then analyzed by SDS-PAGE, transferred to nitrocellulose membranes, and tyrosine-phosphorylated proteins were detected by immunoblotting with anti-phosphotyrosine antibodies.
(§2) Wild-type CHO cells (CHO-K1), as well as heparin sulfate-deficient mutant cells (CHO-pgsD-677) which were kindly provided by Prof. J. Esko (Esko, 1991), were cultured in F-12 medium containing 7.5% FBS, 1% Ampicillin/Streptomycin and 1% glutamine. Both CHO cell lines were co-transfected with the wild-type human FGFR2 (bek) DNA in the expression vector pMJ30 (Dionne et al., 1990) (40 μg/10 cm dish) and the pSVneo resistant gene (0.5 mg/10 cm dish), using the calcium phosphate method (Chen and Okayama, 1987). Geneticin (1 mg/ml) resistant clones were screened for expression of the receptor by immunoprecipitation and immunoblotting analysis using anti-FGFR2 antibodies.
(§3) Wild-type and mutant CHO cells were starved overnight in F-12 medium containing 0.5% FBS, and stimulated with either 0.1 nM aFGF, 50 nM heparin, or both, for 5 min at 37° C. Cells were lysed, immunoprecipitated with anti-FGFR2 antibodies and analyzed by immunoblotting with anti-phosphotyrosine (anti-PTyr) antibodies.

FGFR2 (bek) [2] = assay: Tyrosine phosphorylation of FGFR2 in wild-type CHO-K1 cells; assay type: cell-based, human; details: excess of sucrose octasulfate (0.5, 50 or 500 μM) with aFGF and heparin
Experimental: as §1, §2, §3

aFGF = molecular target: T1, aFGF (Homo sapiens, UniProt P05230); assay: Isothermal titration calorimetry, binding to aFGF; details: ITC
T1 construct: made in house; host or cells: E. coli

VEGF = details: cell culture; Kendall & Thomas, 1993; cited from earlier work

T1 sequence (P05230 whole entry): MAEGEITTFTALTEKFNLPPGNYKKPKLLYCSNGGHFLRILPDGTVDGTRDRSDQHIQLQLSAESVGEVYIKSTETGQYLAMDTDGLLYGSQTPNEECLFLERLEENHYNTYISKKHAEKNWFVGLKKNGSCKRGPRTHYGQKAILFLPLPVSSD

Molecule: Pentosan polysulfate
- K-FGF-induced growth (K-FGF; Wellstein et al., 1991): inhibited the K-FGF- induced growth
- FGF-induced angiogenesis and tumor growth (K-FGF): inhibited the FGF-induced angiogenesis and tumor growth
- growth of tumor cells in vitro (tumor cells): selective inhibition of growth of tumor cells in vitro

Molecule: sucrose octakis (hydrogen sulfate) aluminum complex [sucralfate]
- ulcer healing / wound healing (gastric mucosa; in vivo): accelerates ulcer healing without reducing gastric acid; also recorded: elevates the level of available endogenous bFGF in the ulcer bed and stimulates angiogenesis and wound healing
- epithelial proliferation (gastric mucosa; through stimulation of gastric mucosal EGF and PDGF receptors): enhances epithelial proliferation
- protection of bFGF from acid degradation (bFGF): protects bFGF from degradation by acid
- affinity to bFGF (bFGF; compared with heparin): higher affinity binding to bFGF than heparin
- EGF binding (EGF): binds EGF in a pH-dependent manner

Molecule: Cc1ccc(C(=O)Nc2ccc(S(=O)(=O)O)c3cc(S(=O)(=O)O)cc(S(=O)(=O)O)c23)cc1NC(=O)c1cccc(NC(=O)Nc2cccc(C(=O)Nc3cc(C(=O)Nc4ccc(S(=O)(=O)O)c5cc(S(=O)(=O)O)cc(S(=O)(=O)O)c45)ccc3C)c2)c1 [Suramin]
- effect on heparin binding proteins (heparin binding proteins): inducing microagglutination of the growth factor; also recorded: inhibit a variety of heparin binding proteins

Molecule: O=S(=O)(O)OC[C@H]1O[C@@](COS(=O)(=O)O)(O[C@H]2O[C@H](COS(=O)(=O)O)[C@@H](OS(=O)(=O)O)[C@H](OS(=O)(=O)O)[C@H]2OS(=O)(=O)O)[C@@H](OS(=O)(=O)O)[C@@H]1OS(=O)(=O)O [sucrose octasulfate]
- effect on aFGF/heparin-induced receptor activation, mutant CHO cells (FGFR2 (bek) [1]; excess of sucrose octasulfate (0.5, 50 or 500 μM) with 0.1 nM aFGF and 50 nM heparin): inhibitory; also recorded: can be inhibited
- aFGF/heparin-induced dimerization and activation of FGFR (FGFR2 (bek) [1]; statement of Section 5.1 referring to Section 7.2.8): effectively inhibits aFGF/heparin-induced dimerization and activation of FGFR
- activation of FGFR by aFGF with sucrose octasulfate in place of heparin, mutant CHO cells (FGFR2 (bek) [1]; sucrose octasulfate plus aFGF, no heparin): does not enable aFGF to activate FGFR in the mutant (HSPG-deficient) CHO cells
- effect on aFGF/heparin-induced receptor activation, CHO cells that express HSPG (FGFR2 (bek) [2]): inhibitory
- protection of bFGF from acid degradation (bFGF): protect the biologic activity of bFGF against acid degradation
- AH of aFGF binding to heparin / heparin analog (aFGF; heparins: means ± SD of two experiments): -5.8 ± 1.2 kcal mol^-1
- Kd (aFGF; single class of binding sites, heparins: means ± SD of two experiments, read-out: KD of aFGF binding to heparin / heparin analog): 3.4 ± 1.34 µM
- Kd (aFGF; KD of aFGF binding to sucrose octasulfate): 3.4 µM

B1: soluble Flt-1: soluble Flt-1, one of the receptors for VEGF (protein, UniProt P17948 27-758, looked up)
extracellular domain: SKLKDPELSLKGTQHIMQAGQTLHLQCRGEAAHKWSLPEMVSKESERLSITKSACGRNGKQFCSTLTLNTAQANHTGFYSCKYLAVPTSKKKETESAIYIFISDTGRPFVEMYSEIPEIIHMTEGRELVIPCRVTSPNITVTLKKFPLDTLIPDGKRIIWDSRKGFIISNATYKEIGLLTCEATVNGHLYKTNYLTHRQTNTIIDVQISTPRPVKLLRGHTLVLNCTATTPLNTRVQMTWSYPDEKNKRASVRRRIDQSNSHANIFYSVLTIDKMQNKDKGLYTCRVRSGPSFKSVNTSVHIYDKAFITVKHRKQQVLETVAGKRSYRLSMKVKAFPSPEVVWLKDGLPATEKSARYLTRGYSLIIKDVTEEDAGNYTILLSIKQSNVFKNLTATLIVNVKPQIYEKAVSSFPDPALYPLGSRQILTCTAYGIPQPTIKWFWHPCNHNHSEARCDFCSNNEESFILDADSNMGNRIESITQRMAIIEGKNKMASTLVVADSRISGIYICIASNKVGTVGRNISFYITDVPNGFHVNLEKMPTEGEDLKLSCTVNKFLYRDVTWILLRTVNNRTMHYSISKQKMAITKEHSITLNLTIMNVSLQDSGTYACRARNVYTGEEILQKKEITIRDQEAPYLLRNLSDHTVAISSSTTLDCHANGVPEPQITWFKNNHKIQQEPGIILGPGSSTLFIERVTEEDEGVYHCKATNQKGSVESSAYLTVQGTSDKSNLE
modifications: extracellular domain
notes: soluble Flt-1, one of the receptors for VEGF
- VEGF activity (VEGF): can bind and inhibit the activity of VEGF in cell culture
